Earlier results in PMC8515052, “PepVAE: Variational Autoencoder Framework for Antimicrobial Peptide Generation and Activity Prediction” (Frontiers in Microbiology, 2021).

Tested on: Acinetobacter baumannii
Conditions: murine model of infection; ref Stokes et al., 2020
Excerpt: Many pathogenic bacteria are resistant to the majority of, if not all, antibiotics that are currently being isolated using traditional methods. Because of this, generation of new antimicrobials is critical for survival in the post-antibiotic era ([Brown and Wright, 2016]). At the current rate, annual global death due to antibiotic resistance is projected to exceed 10 million by 2050, costing 100 trillion USD ([O’Neill, 2014]); however, investment has not kept up with the task with very few antibiotics currently in clinical development and far fewer likely to be approved for treatment of patien ...

Nc1nnc(Sc2ncc([N+](=O)[O-])s2)s1 [halicin]
activity against Acinetobacter baumannii: displays activity
